Experimental data published in paper PMC11649784, “Re-design and evaluation of diclofenac-based carborane-substituted prodrugs and their anti-cancer potential” (Scientific Reports, 2024).

Columns and labels:
MC38 cells = test: CFSE cell proliferation, flow cytometry; assay type: cell-based, murine; conditions: IC50 concentration, 72 h
Description: For all flow cytometric analyses, MC38 cells were seeded overnight and then treated with the IC50 concentration of compound 3 for 72 h. The cells were harvested, washed, and stained according to the manufacturer’s instructions for each method. To determine whether the compound induces apoptosis, cells were double stained with AnnV-FITC and PI (15 μg mL^–1) for 15 min at RT in the dark. To detect caspase activity, cells were stained with the FITC-conjugated caspase inhibitor ApoStat for 30 min at [drawing 162] . To detect cell proliferation, MC38 cells were stained with CFSE (1 μM) for 10 min at [drawing 163] prior to seeding and then treated as previously described. To detect intracellular production of Reactive oxygen/nitrogen Species (ROS/RNS), MC38 cells were prestained with DHR 123 (1 [drawing 164] M) for 20 min at [drawing 165] , then seeded and exposed to an IC50 concentration of compound 3. After 72 h incubation, all samples were washed, resuspended in PBS and fluorescence intensity was analyzed using a CytoFLEX [drawing 166] flow cytometer (Beckman Coulter, Pasadena, CA, USA), while the data obtained was evaluated using the [drawing 167] software program.

ovine COX-1 = target: T1, ovine COX-1 (Ovis aries, UniProt P05979); test: COX Fluorescent Inhibitor Screening Assay, COX-1; assay type: biochemical; conditions: absolute IC50, 0.1 to 100 μM in duplicate, 95% CI in brackets
T1 construct: purchased Cayman Chemical Company, Ann Arbor, MI, USA
T1 sequence (P05979 25-600): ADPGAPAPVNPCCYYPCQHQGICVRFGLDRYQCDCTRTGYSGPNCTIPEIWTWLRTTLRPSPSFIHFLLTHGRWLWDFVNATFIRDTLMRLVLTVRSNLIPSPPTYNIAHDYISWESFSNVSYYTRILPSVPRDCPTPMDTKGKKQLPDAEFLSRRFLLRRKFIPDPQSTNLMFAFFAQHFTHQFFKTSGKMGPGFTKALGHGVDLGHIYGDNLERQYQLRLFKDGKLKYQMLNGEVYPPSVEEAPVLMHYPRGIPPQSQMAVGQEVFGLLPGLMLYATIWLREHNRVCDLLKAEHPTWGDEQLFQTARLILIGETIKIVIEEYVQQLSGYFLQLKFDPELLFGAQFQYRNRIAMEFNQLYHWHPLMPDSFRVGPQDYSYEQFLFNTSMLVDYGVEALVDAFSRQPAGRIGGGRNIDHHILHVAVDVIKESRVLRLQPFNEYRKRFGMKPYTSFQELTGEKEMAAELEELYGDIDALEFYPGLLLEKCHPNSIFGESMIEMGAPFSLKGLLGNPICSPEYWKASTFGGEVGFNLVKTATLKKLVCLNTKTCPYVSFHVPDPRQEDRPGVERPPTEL
Description: The COX inhibition activity against ovine COX-1 and human recombinant COX-2 was determined using the COX Fluorescent Inhibitor Screening Assay Kit (Cayman Chemical Company, Ann Arbor, MI, USA) according to the manufacturer’s instructions as reported.

HT29 cells = test: Crystal violet (CV) viability assay, HT29; assay type: cell-based, human; conditions: 72 h, mean±SD; read-out: IC50 [μM] (n = 3) HT29 CV
Description: (§1) In a preliminary test, the stability of all compounds dissolved in the cell medium (c = 100 μM, T = [drawing 47] ) for 72 h was validated by HPLC (see Supporting Information). Cell lines were incubated with the respective compounds in a concentration range of 1.56–100 μM for 72 h, and cell viability was measured using 3-(4,5-dimethylthiazol-2-yl)-2,5-diphenyltetrazolium bromide (MTT) and crystal violet (CV) assays. […] As MTT tests gave inconsistent results, possibly due to interference of the compound with mitochondrial respiration, for the further evaluation only the CV results are considered[97],[98].
(§2) The biological study was performed on a murine colon adenocarcinoma cell line (MC38), two human colorectal carcinoma cell lines (HCT116 and HT29), and a human fetal lung fibroblast cell line (MRC-5). All cell lines are commercially available and were obtained from the American Type Culture Collection (ATCC). The human cell lines were kept in HEPES-buffered RPMI-1640 medium supplemented with 10 [drawing 141] heat-inactivated FCS, 2 mM L-glutamine, 0.01 [drawing 142] sodium pyruvate, penicillin (100 units mL^−1), and, streptomycin ( [drawing 143] mL^-1). The MC38 cell line was maintained in DMEM medium additionally supplemented with 1 [drawing 144] non-essential amino acids. Cells were grown at [drawing 145] in a humidified atmosphere with 5 [drawing 146] [drawing 147] . Peritoneal exudate cells (PECs) were isolated from healthy C57BL/6 mice (males, n = 3, 3 months old, weight 22–25 g) by performing an ice-cold PBS peritoneal lavage. Mice were sacrificed by cervical dislocation. Cells were cultivated for 4 h when nonadherent population was removed by washing in PBS, and additionally cultivated overnight in HEPES-buffered RPMI-1640 medium supplemented with 5 [drawing 148] heat-inactivated FCS before treatment with experimental drugs. Animal handling and protocol for isolation of PECs were performed according to European Union rules, and the ARRIVE guidelines 2.0.
(§3) For the viability tests, MC38, HCT116, and HT29 cells were seeded in 96-well plates at a density of 2 [drawing 149] 103, 5 [drawing 150] 103, and 6 [drawing 151] 10^3 cells/well, respectively. To determine whether the drug affected the viability of healthy, non-malignant cells, MRC-5 and PECs were seeded in 96-well plates at a density of 8 [drawing 152] 103 and 2 [drawing 153] 10^5 cells/well, respectively. For the flow cytometric analyses, MC38 cells were seeded in 6-well plates at 5 [drawing 154] 10^4 cells/well. For morphological assessment of nuclei and the detection of autophagy, MC38 cells were seeded in 2-well chamber slides at 1.5 [drawing 155] 10^4 cells/well.
(§4) After 72 h, cell viability was determined using MTT and CV tests. First, the supernatant from the wells was discarded and the cells were incubated with an MTT solution (0.5 mg mL^−1). After half an hour, the purple formazan crystals formed were dissolved in DMSO. For CV staining of the cells, the cells were fixed with 4 [drawing 157] PFA for 10 min and then stained with a 0.02 [drawing 158] CV solution for 15 min, all at room temperature (RT). The cells were then washed with tap water, air-dried and the dye was dissolved in 33 [drawing 159] acetic acid. For both viability tests, the absorbance of the developed colors was measured using an automated microplate reader at 570 nm with a reference wavelength of 670 nm. The results were expressed as a percentage of the control values of the untreated cells, which were arbitrarily set at 100 [drawing 160] . IC50 values, defined as 50 [drawing 161] inhibitory concentration, were calculated using a four-parameter logistic function and presented as mean±SD. All biological experiments were performed in triplicates. To evaluate the nature of the detected autophagy, a combined treatment with compound 3 and the autophagy inhibitors chloroquine (Chlq) and 3-methyladenine (3-MA) was carried out. […] After 72 h, cell viability was determined by CV assay.

[1] = Stability in solution, air and moisture; conditions: storage
HCT116 cells = test: Crystal violet (CV) viability assay, HCT116; assay type: cell-based, human; conditions: 72 h, mean±SD; read-out: IC50 [μM] (n = 3) HCT116 CV
Description: as §1, §2, §3, §4

IC50 (ovine COX-1): 15.3 µM
IC50 (HT29 cells): 17.6 ± 0.3 µM
stability in air and moisture [1]: stable in air and moisture
IC50 (HCT116 cells): 11.5 ± 1 µM
Substance: 1-[2-(7,8-dicarba-nido-undecaborate)]- [drawing 126] H-indolium-2-amine [compound 3]
CFSE mean fluorescence intensity (undivided cell fraction) (MC38 cells): significantly higher in comparison to controls
